In PubChem BioAssay (NCI):
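Each compound was tested at five concentrations against cells in 96-well plates for 48 hours. TGI: concentration producing complete growth inhibition.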

Experiments:
Assay in all cases: NCI anticancer screen, dose series, 48 h
SF-268 CNS = system: SF-268 CNS
HT29 colon = system: HT29 colon
SF-539 CNS = system: SF-539 CNS
SF-295 CNS = system: SF-295 CNS
NCI-H522 lung = system: NCI-H522 lung
MDA-MB-435 = system: MDA-MB-435
HOP-92 NSCLC = system: HOP-92 NSCLC
A549 NSCLC = system: A549 NSCLC
NCI/ADR-RES ovarian = system: NCI/ADR-RES ovarian
RXF 393 renal = system: RXF 393 renal
EKVX NSCLC = system: EKVX NSCLC
K-562 leukemia = system: K-562 leukemia
SK-MEL-28 melanoma = system: SK-MEL-28 melanoma

| Structure (SMILES) | TGI (SF-268 CNS) [µM] | TGI (HT29 colon) [µM] | TGI (SF-539 CNS) [µM] | TGI (SF-295 CNS) [µM] | TGI (NCI-H522 lung) [µM] | TGI (MDA-MB-435) [µM] | TGI (HOP-92 NSCLC) [µM] | TGI (A549 NSCLC) [µM] | TGI (NCI/ADR-RES ovarian) [µM] | TGI (RXF 393 renal) [µM] | TGI (EKVX NSCLC) [µM] | TGI (K-562 leukemia) [µM] | TGI (SK-MEL-28 melanoma) [µM] |
| --- | --- | --- | --- | --- | --- | --- | --- | --- | --- | --- | --- | --- | --- |
| Nc1ncc2c(n1)-c1ccccc1OC2NC1CC1 (centres undefined) | > 100 | > 100 | > 100 | > 100 | > 100 | > 100 | > 100 | > 100 | > 100 | > 100 | > 100 | – | – |
| CSc1nc(=S)[nH]c2n[nH]c(C)c12 | > 100 | > 100 | > 100 | – | > 100 | > 100 | – | > 100 | > 100 | > 100 | > 100 | > 100 | > 100 |
| Cc1ccc(-c2c(C#N)c(-c3ccc(N(C)C)cc3)c(C#N)c(=O)n2NS(=O)(=O)c2ccccc2)cc1 | > 100 | > 100 | 83.4 | > 100 | > 100 | > 100 | > 100 | > 100 | > 100 | 68.1 | > 100 | > 100 | > 100 |
| CCCCCCCCCC(=O)OCC1(CO)C/C(=C/CC(C(C)C)C(C)C)C(=O)O1 (centres undefined) | > 100 | > 100 | – | > 100 | 39.8 | > 100 | > 100 | > 100 | > 100 | > 100 | > 100 | 97 | > 100 |
| CC(=O)Nc1c(C)cc(OCC(=O)O)cc1C | > 100 | > 100 | – | > 100 | > 100 | > 100 | > 100 | > 100 | > 100 | > 100 | > 100 | > 100 | > 100 |
| N#Cc1c(-c2ccccc2)c(C#N)c(=O)n(NS(=O)(=O)c2ccccc2)c1O | > 100 | > 100 | > 100 | > 100 | > 100 | > 100 | > 100 | > 100 | > 100 | > 100 | > 100 | > 100 | > 100 |
| CSc1nc(C)cc(Nc2ccc(O)c(CN3CCCCC3)c2)n1 | > 100 | 60.1 | > 100 | > 100 | > 100 | > 100 | > 100 | > 100 | > 100 | > 100 | 88.7 | > 100 | 79.6 |
| CCN(CC)c1ccc(/C=C/C2=NN(c3cccc(S(=O)(=O)O)c3)C3(C2)C(Cl)C(=O)N3c2nc3ccccc3s2)cc1 (centres undefined) | 41.5 | 33.9 | 10.6 | 27.7 | 3.57 | 17 | 15.3 | 28.7 | > 79.3 | 21.1 | 39.2 | 49.8 | 63 |
| O=C(Nc1ccccc1)N1CCNC1=S | > 100 | > 100 | > 100 | > 100 | > 100 | > 100 | > 100 | > 100 | > 100 | 98.2 | > 100 | > 100 | > 100 |
| O=c1cc(-c2ccc(O)c(O)c2)oc2cc(OC3OC(CO)C(O)C(O)C3O)cc(O)c12 (centres undefined) | > 100 | > 100 | > 100 | > 100 | > 100 | > 100 | > 100 | > 100 | > 100 | > 100 | > 100 | – | > 100 |
| O=C1/C(=C/c2cccc([N+](=O)[O-])c2)CCCc2ccccc21 | 19.3 | 24 | 28.6 | 27.7 | 19.9 | 21.4 | 29.6 | 48 | 23.8 | – | 32.5 | 14.6 | 28.6 |
| CCC(=O)N(c1ccccc1)C(C)CN1CCC(O)(c2ccccc2)CC1 (centres undefined) | > 100 | > 100 | > 100 | > 100 | > 100 | > 100 | > 100 | > 100 | > 100 | > 100 | > 100 | > 100 | > 100 |
| O=C(CNC(=O)OCc1ccccc1)NCCCCC(NC(=O)OCc1ccccc1)C(=O)O (centres undefined) | > 100 | > 100 | > 100 | > 100 | > 100 | > 100 | > 100 | > 100 | > 100 | > 100 | > 100 | > 100 | > 100 |
| Cc1[nH]c2ncn(/N=C/c3ccccc3)c(=N)c2c1Cc1ccccc1 | > 100 | > 100 | > 100 | > 100 | – | > 100 | > 100 | > 100 | > 100 | > 100 | > 100 | > 100 | > 100 |
| CCOP(=O)(CS(C)=O)O[C@@H]1C[C@H](C)CC[C@H]1C(C)C (some centres undefined) | 21.3 | > 34.1 | 26.9 | 18.5 | 6.19 | 11.9 | 16.9 | 17.7 | 26 | 7.83 | 11.2 | > 100 | > 100 |
| CCCCCCN(C(=O)Oc1ccccc1)C(C#N)c1ccccc1 (centres undefined) | > 100 | > 100 | > 100 | > 100 | > 100 | > 100 | > 100 | > 100 | > 100 | > 100 | > 100 | > 100 | > 100 |
| CCOC(=O)CNC(=O)C(CSC(=O)N(O)c1ccc(Br)cc1)NC(=O)CCC(N)C(=O)OCC (centres undefined) | > 50 | > 50 | > 50 | > 50 | > 50 | > 50 | > 50 | > 50 | > 50 | > 50 | > 50 | > 50 | > 50 |
| COc1ccc(NC=O)c(C(O)CCNC(C)=O)c1 (centres undefined) | > 100 | > 100 | > 100 | > 100 | > 100 | > 100 | > 100 | > 100 | > 100 | > 100 | > 100 | > 100 | – |
